The record followed here is patent US20220105127A1, “METHODS FOR PROVIDING THE BENEFITS OF METHIONINE RESTRICTION WITHOUT DIETARY RESTRICTION” (priority 2020, published 2022).

Common to all, as to format: in vivo, mouse
The test system of one assay is adiponectin. Description: Experiment 2: high-fat diet with first compounds, plasma adiponectin ELISA. The settings on record: high-fat diet 9 weeks, untreated = 100%, lysine 6.45%, OBS 4.3%, SPC 4.3% of food; for Plasma Adiponectin, Females: female mice; for Plasma Adiponectin, Males: male mice. The method, then: (§1) Food and water were provided ad libitum.
(§2) Body mass and food consumption were monitored once a week for sixteen weeks. Prior to blood collection, animals were fasted for 4 hours to establish a physiological baseline. Blood was then collected from the retro-orbital plexus and processed using EDTA-K2-coated blood collection tubes (Milian Dutscher Group; Geneva, Switzerland). The resulting plasma was frozen and stored at −80° C. until used for analysis. A portion of each blood sample was used for blood glucose determination using an Abbott Freestyle Lite glucometer and glucose strips (Abbott Diabetes Care, Inc.; Alameda, Calif.). At the end of each study, animals were fasted and bled, as described above. The mice were then sacrificed, their overall body condition was assessed, and certain physiological parameters were measured. The inguinal and perigonadal fat pads, as well as liver of each mouse, were harvested by surgical resection, weighed, flash frozen, and stored at −80° C.
(§3) Enzyme-linked immunosorbent assay (ELISA) kits were obtained commercially and used to measure plasma levels of IGF-1 (R&D Systems; Minneapolis, Minn.), adiponectin (R&D Systems), FGF-21 (Millipore Corp.; Billerica, Mass.), leptin (R&D Systems), growth hormone (Millipore Corp.), and insulin (ALPCO Diagnostics; Salem, N.H.). Tests were performed according to the manufacturers' recommendations and measured using a Molecular Devices SpectraMax M5 Microplate Reader (Molecular Devices LLC; San Jose, Calif.). Two technical replicates were performed for each sample and the statistical significance of the resulting values determined by unpaired two-tailed t-tests using the software package Prism 8 (Graph-Pad Software; La Jolla, Calif.).
Background: ELISA stands for enzyme-linked immunosorbent assay.

A further assay concerns insulin. Description: Experiment 2: high-fat diet with first compounds, plasma insulin ELISA. Conditions: for Plasma Insulin, Females / Plasma Insulin, Males: high-fat diet 9 weeks, untreated = 100%, lysine 6.45%, OBS 4.3%, SPC 4.3% of food; for Plasma Insulin, Males: male mice. The procedure: as §1, §2, §3
Another assay has as its system plasma glucose. Description: Experiment 2: high-fat diet with first compounds, plasma glucose. Conditions: for Plasma Glucose, Females / Plasma Glucose, Males: high-fat diet 9 weeks, untreated = 100%, lysine 6.45%, OBS 4.3%, SPC 4.3% of food; for Plasma Glucose, Males: male mice. The procedure: as §1, §2
A further assay relates to leptin. Description: Experiment 2: high-fat diet with first compounds, plasma leptin ELISA. The settings on record: for Plasma Leptin, Females / Plasma Leptin, Males: high-fat diet 9 weeks, untreated = 100%, lysine 6.45%, OBS 4.3%, SPC 4.3% of food; for Plasma Leptin, Males: male mice. The procedure:
as §1, §2, §3

A further assay deals with IGF-1. Description: Experiment 2: high-fat diet with first compounds, plasma IGF-1 ELISA. The settings on record: for Plasma IGF-1, Females / Plasma IGF-1, Males: high-fat diet 9 weeks, untreated = 100%, lysine 6.45%, OBS 4.3%, SPC 4.3% of food; for Plasma IGF-1, Males: male mice. The method, then: as §1, §2, §3
A further assay has as its system FGF-21. Description: Experiment 2: high-fat diet with first compounds, plasma FGF-21 ELISA. Conditions: untreated = 100%; for Plasma FGF-21, Females: female mice, high-fat diet 9 weeks, lysine 6.45%, OBS 4.3%, SPC 4.3% of food. The method, then: as §1, §2, §3
A further assay concerns C57BL/6J mice. Description: Experiment 2: high-fat diet with first compounds, body mass and inguinal/perigonadal fat pad mass. Conditions: for Total Body Mass, Females / Inguinal Fat Mass, Females / Perigonadal Fat Mass, Females / Total Body Mass, Males / Inguinal Fat Mass, Males / Perigonadal Fat Mass, Males: high-fat diet 9 weeks, untreated = 100%, lysine 6.45%; for Total Body Mass, Females / Total Body Mass, Males: O-benzyl serine 4.3%, S-phenyl cysteine 4.3% of food; for Inguinal Fat Mass, Females / Perigonadal Fat Mass, Females / Inguinal Fat Mass, Males / Perigonadal Fat Mass, Males: OBS 4.3%, SPC 4.3% of food; for Total Body Mass, Males / Inguinal Fat Mass, Males / Perigonadal Fat Mass, Males: male mice; for Total Body Mass, Males: tryptophan dose not given. The procedure: as §1
as §2, with “Prior” for “Body mass and food consumption were monitored once a week for sixteen weeks. Prior”

Where [1] appears, read: female mice, 4.3% S-phenyl cysteine, high-fat diet, 9 week interval.
Setting [2] is: female mice, 4.3% S-phenyl cysteine, high-fat diet, 9 week interval, p<0.001 vs untreated.

The structures appear in SMILES notation.

`NCCCC[C@H](N)C(=O)O` [Lysine, lysine]: in the assay with adiponectin, the “Plasma Adiponectin, Females” value was determined as 125% and the “Plasma Adiponectin, Males” value was 92%. Further, the “Plasma Insulin, Females” value with insulin (female mice) worked out at 41%. Besides, the “Plasma Insulin, Males” value in the assay with insulin came out at 22%. Further, the “Plasma Glucose, Females” value in the assay on plasma glucose (female mice) is on record as 73%. Also, the “Plasma Glucose, Males” value in the assay on plasma glucose worked out at 84%. Moreover, in the assay with leptin (female mice), the “Plasma Leptin, Females” value came to 28%. The “Plasma Leptin, Males” value in the assay with leptin is 13%. Moreover, in the assay with IGF-1 (female mice), the “Plasma IGF-1, Females” value is recorded as 66%. Moreover, the “Plasma IGF-1, Males” value with IGF-1 was 68%. Besides, the “Plasma FGF-21, Females” value in the assay on FGF-21 turned out to be 144%. For the same compound, in the assay on C57BL/6J mice (female mice), the “Total Body Mass, Females” value stood at 72%; the “Inguinal Fat Mass, Females” value is 38%; the “Perigonadal Fat Mass, Females” value was 37%. Besides, in the assay on C57BL/6J mice, the “Total Body Mass, Males” value worked out at 91%; the “Inguinal Fat Mass, Males” value worked out at 42%; the “Perigonadal Fat Mass, Males” value came to 34%.

Turning to `N[C@@H](COCc1ccccc1)C(=O)O` [O-Benzyl-Serine, O-benzyl serine], in the assay on adiponectin, the “Plasma Adiponectin, Females” value amounted to 106% and the “Plasma Adiponectin, Males” value stood at 108%. Further, in the assay with insulin (female mice), the “Plasma Insulin, Females” value was 37%. Moreover, the “Plasma Insulin, Males” value in the assay on insulin is given as 28%. The “Plasma Glucose, Females” value in the assay with plasma glucose (female mice) is given as 71%. Further, the “Plasma Glucose, Males” value in the assay on plasma glucose was determined as 93%. Moreover, the “Plasma Leptin, Females” value in the assay on leptin (female mice) is on record as 20%. The “Plasma Leptin, Males” value with leptin was 12%. For the same compound, the “Plasma IGF-1, Females” value in the assay on IGF-1 (female mice) amounted to 79%. Also, the “Plasma IGF-1, Males” value with IGF-1 stood at 72%. Moreover, the “Plasma FGF-21, Females” value in the assay on FGF-21 was 280%. Further, in the assay on C57BL/6J mice (female mice), the “Total Body Mass, Females” value came to 69%; the “Inguinal Fat Mass, Females” value was 27%; the “Perigonadal Fat Mass, Females” value amounted to 25%. For the same compound, in the assay on C57BL/6J mice, the “Total Body Mass, Males” value is on record as 89%; the “Inguinal Fat Mass, Males” value stood at 42%; the “Perigonadal Fat Mass, Males” value was determined as 31%.

For the compound `N[C@@H](CSc1ccccc1)C(=O)O` [S-Phenyl-Cysteine, S-phenyl cysteine], in the assay with adiponectin, the “Plasma Adiponectin, Females” value is given as 100% and the “Plasma Adiponectin, Males” value came to 213%. Also, in the assay with insulin (setting [1]), the “plasma insulin level over time (FIG. 7B)” value is given as “maintenance of low insulin levels”. Further, the “Plasma Insulin, Females” value in the assay with insulin (female mice) amounted to 32%. In addition, the “Plasma Insulin, Males” value in the assay on insulin worked out at 25%. Further, the “plasma glucose level over time (FIG. 7A)” value in the assay on plasma glucose (female mice, 4.3% S-phenyl cysteine, high-fat diet, 9 week interval, more efficacious than methionine restriction) is “maintenance of low plasma glucose”. Besides, in the assay on plasma glucose (female mice), the “Plasma Glucose, Females” value came out at 71%. In the assay with plasma glucose, the “Plasma Glucose, Males” value stood at 70%. For the same compound, in the assay on leptin (setting [1]), the “plasma leptin level over time (FIG. 8B)” value is “maintenance of low plasma leptin levels”. Also, in the assay with leptin (female mice), the “Plasma Leptin, Females” value was found to be 16%. Moreover, the “Plasma Leptin, Males” value in the assay with leptin is recorded as 11%. The “plasma IGF-1 level over time (FIG. 8A)” value with IGF-1 (setting [1]) is given as “sustained reductions of plasma IGF-1 levels”. Further, the “Plasma IGF-1, Females” value with IGF-1 (female mice) turned out to be 72%. For the same compound, the “Plasma IGF-1, Males” value with IGF-1 came to 66%. Besides, the “Plasma FGF-21, Females” value in the assay on FGF-21 is listed as 181%. Besides, in the assay with C57BL/6J mice (setting [2]), the “accumulation of inguinal and perigonadal adipose tissue (FIGS. 6A, 6B)” value is recorded as “robust protection against the accumulation of adipose tissue”; the “total weight gain (FIG. 5)” value was “robust prevention of total weight gain”. In addition, in the assay with C57BL/6J mice (female mice), the “Total Body Mass, Females” value is given as 71%; the “Inguinal Fat Mass, Females” value came to 23%; the “Perigonadal Fat Mass, Females” value turned out to be 25%. For the same compound, in the assay on C57BL/6J mice, the “Total Body Mass, Males” value stood at 87%; the “Inguinal Fat Mass, Males” value is recorded as 44%; the “Perigonadal Fat Mass, Males” value is 35%.

Regarding `N[C@@H](Cc1c[nH]c2ccccc12)C(=O)O` [Tryptophan, tryptophan], the “Plasma Adiponectin, Males” value with adiponectin came to 118%. For the same compound, the “Plasma Insulin, Males” value in the assay with insulin was 56%. For the same compound, in the assay with plasma glucose, the “Plasma Glucose, Males” value was 94%. Moreover, the “Plasma Leptin, Males” value in the assay with leptin turned out to be 18%. Also, the “Plasma IGF-1, Males” value in the assay with IGF-1 was 73%. Moreover, in the assay with FGF-21 (male mice, high-fat diet, tryptophan dose not given), the “Plasma FGF-21, Males” value amounted to 502%. Besides, in the assay on C57BL/6J mice, the “Total Body Mass, Males” value came out at 85%; the “Inguinal Fat Mass, Males” value is on record as 50%; the “Perigonadal Fat Mass, Males” value came to 39%.
